What was measured:
[1] = tested on: T. cruzi; test: Intracellular ROS, CellROX Deep Red, T. cruzi; format: cell-based, Trypanosoma cruzi; settings: 24 h incubation
Protocol: (§1) The measure of reactive oxygen species (ROS) was measured after treatment of 24 h using CellROX® Deep Red fluorescent probe (Invitrogen, Madrid, Spain). The mitochondria constitute an essential organelle to neutralize the reactive oxygen species; the malfunction of this organelle would generate an imbalance between the antioxidants and the reactive oxygen.

[2] = tested on: L. amazonensis; test: Intracellular ROS, CellROX Deep Red, L. amazonensis; format: cell-based, Leishmania amazonensis; settings: 24 h incubation
Protocol: as §1

[3] = tested on: T. cruzi; test: Atomic force microscopy, T. cruzi; format: cell-based, Trypanosoma cruzi; settings: IC90, 12 and 24 h
Protocol: (§2) […] After incubation, cells were washed twice with PBS, and 10 µL of a 10^5 cells/mL suspension was smeared onto glass slides. Prior to AFM analysis, samples were dried for 10 min. AFM topographic images were acquired in Peak Force mode using a multimode microscope equipped with a Nanoscope V control unit (Bruker). Scans were performed at rates of 0.5–1.2 Hz, employing FESP tips (50–100 kHz, 1–5 N/m) from Bruker. The damage caused by derivative 9 in both parasites was assessed by recording images at scales ranging from 100 µm × 100 µm to 0.6 µm × 0.6 µm, with a resolution of 512 points per line.

[4] = tested on: L. amazonensis promastigotes; test: Monodansylcadaverine staining of autophagic vacuoles, L. amazonensis; format: cell-based, Leishmania amazonensis; settings: 24 h treatment, confocal microscopy
Protocol: The present method consists of staining the autophagic vacuoles with the treated cells by ion trapping and specific interactions with the vesicle membrane lipids. The experiment was carried out by following the manufacturer’s recommendations, and as described previously. After 24 h of incubation, cells were stained with MDC reagent at 5 mM and incubated at 26 °C for 30 min in µ-Slide 8 (Ibidi, Gräfelfing, Germany). Later, the cells were washed with PBS and observed with Leica DMI 4000 B.

[5] = tested on: L. amazonensis; test: Atomic force microscopy, L. amazonensis; format: cell-based, Leishmania amazonensis; settings: IC90, 12 and 24 h
Protocol: as §2

[6] = tested on: T. cruzi epimastigotes; test: Mitochondrial membrane potential, JC-1, T. cruzi; format: cell-based, Trypanosoma cruzi; settings: JC-1 red/green ratio, IC90, 24 h
Protocol: The measurement of mitochondrial membrane potential was carried out using the JC-1 assay. JC-1 is a mitochondria-specific stain whose fluorescence emission depends on the mitochondrial membrane potential. In healthy mitochondria, JC-1 aggregates and emits red fluorescence, whereas in unhealthy mitochondria, it remains in monomeric form and emits green fluorescence. […] The assay was performed according to the manufacturer’s instructions, as detailed in a previous study.

[7] = Intramacrophagic stage assay, L. amazonensis in J774.A1 macrophages; format: cell-based, Leishmania amazonensis; settings: mouse; CC50 J774.A1 / IC50 intracellular L. amazonensis; read-out: Selectivity Leishmania SI (CC50/IC50)
Protocol: (§3) Briefly, in a 96-well plate, macrophages from the J774.A1 cell line were seeded at a final concentration of 2 × 10^5 cells/mL in Dulbecco’s Modified Eagle Medium (DMEM) and maintained at 37 °C in a 5% CO2 atmosphere until fully adhesion. […] After infection, plates were washed using DMEM to eliminate external parasites. Subsequently, infected macrophages were treated with different concentrations of active compounds for 24 h. Later, macrophages were lysed using 30 μL of medium, Schneider for Leishmania, and in liver infusion tryptose for Trypanosoma, containing 0.05% of sodium dodecyl sulfate (SDS) for 30 s under agitation. Afterwards, 170 μL of the appropriated medium was derivatives added to each well to give a final volume of 200 μL. Subsequently, 10% of alamarBlue® was added into each well and the plate was incubated at 26 °C for 72 h. Cytotoxicity effect of the tested derivatives was conducted using macrophages of the murine cell line J774.A1 (American Type Culture Collection #TIB-67, city, country), as previously described. The cells were maintained in DMEM at 37 °C in a 5% CO2 humidified incubator.

[8] = tested on: intramacrophage L. amazonensis; test: as above; format: cell-based, Leishmania amazonensis; settings: Leishmania amazonensis; intramacrophage stage in J774.A1, 24 h treatment; mean ± SD; read-out: L. amazonensis Intracellular IC50
Protocol: as §3

[9] = tested on: T. cruzi
Protocol: (§4) The effect of derivatives 9 and 10 to modulate cell features was studied in the tested protozoa parasites, using various specific commercial kits. Parasite cells were incubated with the derivative at the previously calculated IC90 for 24 h. Subsequently, cells were washed and submitted to different treatments as mentioned by the manufacturer’s instructions. In all the assays, a plate reader EnSpire Multimode Plate Reader® and/or an image base system fluorescence microscope EVOS M5000 were used for the fluorescence intensity quantification. For each protocol, images of representative population cells were obtained using an inverted confocal microscope Leica DMI 4000 B with LAS X software, and Leica HC PL APO 63×/1.40 OIL CS2 Objective (Barcelona, Spain). The SYTOX™ Green (Life Technologies, Madrid, Spain), a cell impermeable DNA binding stain, was used to evaluate the membrane permeability and integrity. The assay was conducted as detailed in the manufacture instructions, and as previously described.

[10] = tested on: L. amazonensis
Protocol: as §4

| SMILES | intracellular ROS (CellROX Deep Red) [1] | intracellular ROS (CellROX Deep Red) [2] | morphological effects (AFM) [3] | autophagic vacuoles (MDC staining) [4] | morphological effects (AFM) [5] | decrease of mitochondrial membrane potential (ΔΨm) [6] [%] | selectivity ratio [7] | IC50 [8] [µM] | plasma membrane permeability (SYTOX Green) [9] | plasma membrane permeability (SYTOX Green) [10] |
| --- | --- | --- | --- | --- | --- | --- | --- | --- | --- | --- |
| COc1ccc(C(=O)Oc2cc(C)ccc2C(C)C)cc1 [Derivative 9, thymyl anysoate] | induced oxidative stress | induced oxidative stress | induced the formation of giant vacuoles in the cytoplasm | Induction of autophagy | induced the formation of giant vacuoles in the cytoplasm | 70 | > 19.7 | 15.2 ± 0.8 | – | – |
| Cc1ccc(C(C)C)c(OC(=O)c2ccccn2)c1 [Derivative 10, thymyl picolinate] | – | – | – | Induction of autophagy | – | – | 10.1 | 25.3 ± 0.8 | greater damage to membrane permeability | greater damage to membrane permeability |

From publication PMC12024213, “Mechanism Insight of Cell Death Signaling by Thymol Derivatives on Trypanosomatidae Protozoan Parasites” (Antibiotics, 2025)
